Data from the supplement of paper PMC10307832.

Columns and labels:
Experiment in all cases: relative viability (nuclei count vs DMSO), 5 days (fraction); higher = more cells survive
[1] = compound: CCc1c2c(nc3ccc(OC(=O)N4CCC(N5CCCCC5)CC4)cc13)-c1cc3c(c(=O)n1C2)COC(=O)[C@]3(O)CC [Irinotecan] + CS(=O)(=O)N1CCN(Cc2cc3nc(-c4cccc5[nH]ncc45)nc(N4CCOCC4)c3s2)CC1 [Pictilisib] (partner 1 µM)
In short: (§1)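 Relative viability was taken as the ratio of nuclei in treated wells to nuclei in vehicle wells. Lung cancer cell lines in 1536-well plates received compounds by pin tool one day after seeding, either one drug alone or a fixed anchor-drug dose plus five library-drug doses (not always all listed) in √10 steps. Nuclei were counted on 4× images after 5 days of treatment, and values are medians of duplicate plates.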

[2] = compound: Cn1cc(-c2cnc3ccc4ccc(CS(=O)(=O)NCc5ccccn5)cc4c(=O)c3c2)cn1 [MK-8033] + Nc1nc2[nH]cc(CCc3ccc(C(=O)N[C@@H](CCC(=O)O)C(=O)O)cc3)c2c(=O)[nH]1 [Pemetrexed] (partner 0.2 µM)
In short: as §1

[3] = compound: Cn1cc(-c2cnc3ccc4ccc(CS(=O)(=O)NCc5ccccn5)cc4c(=O)c3c2)cn1 [MK-8033] + CC(=O)c1c(C)c2cnc(Nc3ccc(N4CCNCC4)cn3)nc2n(C2CCCC2)c1=O [Palbociclib] (partner 0.5 µM)
In short: as §1

[4] = compound: CCc1c2c(nc3ccc(OC(=O)N4CCC(N5CCCCC5)CC4)cc13)-c1cc3c(c(=O)n1C2)COC(=O)[C@]3(O)CC [Irinotecan] + C[C@]1(O)C[C@@H](c2nc(-c3ccc4ccc(-c5ccccc5)nc4c3)c3c(N)nccn32)C1 [Linsitinib] (partner 1 µM)
In short: as §1

| Cell Line | relative viability ([1]; first compound 0.6325 µM) | relative viability ([1]; first compound 2 µM) | relative viability ([1]; first compound 6.325 µM) | relative viability ([1]; first compound 20 µM) | relative viability ([2]; first compound 0.02 µM) | relative viability ([2]; first compound 0.06325 µM) | relative viability ([2]; first compound 0.2 µM) | relative viability ([2]; first compound 0.6325 µM) | relative viability ([2]; first compound 2 µM) | relative viability ([3]; first compound 0.02 µM) | relative viability ([3]; first compound 0.06325 µM) | relative viability ([3]; first compound 0.2 µM) | relative viability ([3]; first compound 0.6325 µM) | relative viability ([3]; first compound 2 µM) | relative viability ([4]; first compound 0.6325 µM) | relative viability ([4]; first compound 2 µM) | relative viability ([4]; first compound 6.325 µM) | relative viability ([4]; first compound 20 µM) |
| --- | --- | --- | --- | --- | --- | --- | --- | --- | --- | --- | --- | --- | --- | --- | --- | --- | --- | --- |
| HCC-78 | 0.276 | 0.172 | 0.149 | 0.158 | 0.936 | 0.923 | 0.928 | 0.587 | 0.851 | 0.516 | 0.63 | 0.451 | 0.514 | 0.511 | 0.577 | 0.418 | 0.204 | 0.184 |
| NCI-H441 | 0.434 | 0.314 | 0.216 | 0.32 | 0.246 | 0.274 | 0.254 | 0.266 | 0.255 | 0.182 | 0.189 | 0.217 | 0.275 | 0.238 | 0.547 | 0.339 | 0.241 | 0.341 |
| NCI-H1299 | 0.516 | 0.563 | 0.256 | 0.0872 |  |  |  |  |  |  |  |  |  |  | 0.721 | 0.865 | 0.463 | 0.266 |
| LU99A | 0.206 | 0.211 | 0.206 | 0.235 | 0.192 | 0.183 | 0.158 | 0.168 | 0.187 | 0.414 | 0.343 | 0.398 | 0.409 | 0.39 | 0.233 | 0.247 | 0.224 | 0.238 |
| NCI-H1651 | 0.427 | 0.425 | 0.175 | 0.108 | 0.633 | 0.561 | 0.56 | 0.685 | 0.582 | 0.51 | 0.498 | 0.514 | 0.536 | 0.521 | 0.803 | 0.542 | 0.203 | 0.159 |
| HARA | 0.189 | 0.104 | 0.161 | 0.0982 | 0.289 | 0.212 | 0.227 | 0.264 | 0.229 | 0.229 | 0.251 | 0.311 | 0.296 | 0.283 | 0.623 | 0.152 | 0.148 | 0.154 |
| RERF-LC-KJ | 0.516 | 0.422 | 0.455 | 0.418 | 0.459 | 0.467 | 0.501 | 0.462 | 0.471 | 1.11 | 1.07 | 1.01 | 1.08 | 1.08 | 0.807 | 0.647 | 0.379 | 0.34 |
| LCLC-103H | 0.406 | 0.51 | 0.331 | 0.408 | 0.504 | 0.446 | 0.457 | 0.482 | 0.458 | 0.514 | 0.51 | 0.47 | 0.295 | 0.491 | 0.91 | 0.352 | 0.362 | 0.411 |
| SK-LU-1 | 0.444 | 0.447 | 0.322 | 0.247 | 0.974 | 0.944 | 0.929 | 0.625 | 0.956 | 0.411 | 0.373 | 0.373 | 0.367 | 0.383 | 0.491 | 0.495 | 0.379 | 0.329 |
| Calu-6 | 0.573 | 0.417 | 0.219 | 0.0958 |  |  |  |  |  |  |  |  |  |  | 0.714 | 0.523 | 0.2 | 0.132 |
| NCI-H1648 |  |  |  |  | 0.733 |  | 0.538 | 0.81 | 0.835 | 0.243 |  | 0.296 | 0.299 | 0.258 |  |  |  |  |
| NCI-H522 |  |  |  |  | 1.07 | 0.967 | 0.941 | 0.891 | 1.04 | 0.968 | 0.96 | 1 | 0.968 | 1.18 |  |  |  |  |
| LOU-NH91 | 0.517 | 0.518 | 0.409 | 0.35 | 0.375 | 0.38 | 0.35 | 0.366 | 0.318 | 0.495 | 0.523 | 0.512 | 0.531 | 0.53 | 0.834 | 0.706 | 0.431 | 0.309 |
| HCC-366 | 0.181 | 0.142 | 0.0733 | 0.0469 | 0.151 | 0.222 | 0.141 | 0.196 | 0.35 | 0.417 | 0.343 | 0.355 | 0.367 | 0.351 | 0.443 | 0.152 | 0.0502 | 0.0674 |
| CAL-12T | 0.4 | 0.396 | 0.443 | 0.327 | 1.26 | 1.18 | 1.12 | 1.35 | 1.18 | 0.44 | 0.436 | 0.324 | 0.579 | 0.323 | 0.589 | 0.77 | 0.366 | 0.264 |
| PC-3 [JPC-3] | 0.309 | 0.535 | 0.315 | 0.344 | 1.07 |  | 0.99 | 1.1 | 1.07 | 0.506 |  | 0.505 | 0.516 | 0.554 | 0.842 | 0.413 | 0.377 | 0.412 |
